According to patent US11292791B2 (priority 2017, dated 2022):

Molecular target: BRD4 (Homo sapiens (Human), UniProt O60885)
Details: read-out: BRD4 IC50 (μM gmean)

COC(=O)N1c2ccc3c(nc(Cc4nccc(C)n4)n3[C@@H]3CCC[C@@H](C(=O)O)C3)c2CC[C@@H]1C [Example 820]
IC50: 1 to 1000 µM

COC(=O)N1c2ccc3c(nc(C[C@@H](C)c4ccccc4)n3C)c2CC[C@@H]1C [Example 1, methyl (S)-3,7-dimethyl-2-((R)-2-phenylpropyl)-3,7,8,9-tetrahydro-6H-imidazo[4,5-f]quinoline-6-carboxylate]
IC50: 1 to 1000 µM

COC(=O)N1c2ccc3c(nc(CC(C(=O)O)c4cccc5ccccc45)n3C3CCCOC3)c2CC[C@@H]1C (some centres unmarked) [Example 852]
IC50: 1 to 1000 µM

COC(=O)N1c2ccc3c(nc(CC(C(=O)O)c4ccccc4)n3-c3ccc(OC)cc3)c2CC[C@@H]1C (some centres unmarked) [Example 849]
IC50: 1 to 1000 µM

COC(=O)N1c2ccc3c(nc(COC4CCOCC4)n3[C@@H]3CCC[C@@H](C(=O)O)C3)c2CC[C@@H]1C [Example 741]
IC50: 1 to 1000 µM

COC(=O)N1c2ccc3c(nc(C(C)Cn4cc(C(F)F)cn4)n3C3CCC(C(=O)O)CC3)c2CC[C@@H]1C (some centres unmarked) [Example 504]
IC50: 1 to 1000 µM

COC(=O)N1c2ccc3c(nc(C(O)c4ccccc4)n3C3CCC(C(=O)O)CC3)c2CC[C@@H]1C (some centres unmarked) [Example 708]
IC50: 1 to 1000 µM

COC(=O)N1c2ccc3c(nc(CCn4ccccc4=O)n3CC(=O)NCC3(O)CCC3)c2CC[C@@H]1C [Example 390]
IC50: 1 to 1000 µM

COC(=O)N1c2ccc3c(nc(CCn4ccccc4=O)n3CC(=O)N3CCC(O)CC3)c2CC[C@@H]1C [Example 381]
IC50: 1 to 1000 µM

COC(=O)N1c2ccc3c(nc(C(O)c4cc5c(cn4)OCC5)n3C3CCCC(C(=O)O)C3)c2CC[C@@H]1C (some centres unmarked) [Example 636]
IC50: 1 to 1000 µM

COC(=O)N1c2ccc3c(nc(CCn4cccn4)n3CCNCc3cnn(C)c3)c2CC[C@@H]1C [Example 293]
IC50: 1 to 1000 µM

COC(=O)N1c2ccc3c(nc(CC(C(=O)O)c4ccc(F)cc4)n3C3CCCOC3)c2CC[C@@H]1C (some centres unmarked) [Example 510]
IC50: 1 to 1000 µM

COC(=O)N1c2ccc3c(nc(CCc4ccncc4)n3C)c2CC[C@@H]1C [Example 14]
IC50: 1 to 1000 µM

COC(=O)N1c2ccc3c(nc(Cc4cc(Cl)cc(OC)c4)n3[C@H]3CC[C@H](C(=O)O)CC3)c2CC[C@@H]1C [Example 656]
IC50: 1 to 1000 µM

COC(=O)N1c2ccc3c(nc(CCn4cccn4)n3CCN3CCNCC3)c2CC[C@@H]1C [Example 935]
IC50: 1 to 1000 µM

COC(=O)N1c2ccc3c(nc(C(C)Cc4cnn(C)c4)n3C3CCNCC3)c2CC[C@@H]1C (some centres unmarked) [Example 951]
IC50: 1 to 1000 µM

COC(=O)N1c2ccc3c(nc(C(C)Cn4cc(C)cn4)n3C3CCS(=O)(=O)C3)c2CC[C@@H]1C (some centres unmarked) [Example 844]
IC50: 1 to 1000 µM

COC(=O)N1c2ccc3c(nc(Cc4ccc(OC)cc4)n3[C@H]3CC[C@H](C(=O)O)CC3)c2CC[C@@H]1C [Example 27]
IC50: 1 to 1000 µM

COC(=O)N1c2ccc3c(nc(CC(C(=O)O)c4ccccc4)n3C3CCCC(OC)C3)c2CC[C@@H]1C (some centres unmarked) [Example 791]
IC50: 1 to 1000 µM

COC(=O)N1c2ccc3c(nc([C@@H](CO)c4ccccc4)n3C3CCOCC3)c2CC[C@@H]1C [Example 47, methyl (7S)-2-[(1S)-2-hydroxy-1-phenylethyl]-7-methyl-3-(oxan-4-yl)-3H,6H,7H,8H,9H-imidazo[4,5-f]quinoline-6-carboxylate]
IC50: 1 to 1000 µM

COC(=O)N1c2ccc3c(nc(N(C)c4ccc(C)cc4)n3[C@@H]3CCC[C@@H](C(=O)O)C3)c2CC[C@@H]1C [Example 591]
IC50: 1 to 1000 µM

COC(=O)N1c2ccc3c(nc(Cc4cc(F)cc(OC)c4)n3[C@@H]3CCC[C@@H](C(=O)O)C3)c2CC[C@@H]1C [Example 541]
IC50: 1 to 1000 µM

COC(=O)N1c2ccc3c(nc(CC(C(=O)O)c4ccc(C(F)F)cc4)n3C3CCCOC3)c2CC[C@@H]1C (some centres unmarked) [Example 901]
IC50: 1 to 1000 µM

COC(=O)N1c2ccc3c(nc(C(C)Cn4cccn4)n3C3CCS(=O)(=O)C3)c2CC[C@@H]1C (some centres unmarked) [Example 956]
IC50: 1 to 1000 µM

COC(=O)N1c2ccc3c(nc(CC(C(=O)O)c4ccc(C)cc4)n3C3COCC(F)(F)C3)c2CC[C@@H]1C (some centres unmarked) [Example 563]
IC50: 1 to 1000 µM

COC(=O)N1c2ccc3c(nc(CCn4cccn4)n3CC(=O)NCc3ccno3)c2CC[C@@H]1C [Example 367]
IC50: 1 to 1000 µM

COC(=O)N1c2ccc3c(nc(Cc4ccccc4)n3[C@H]3CCC34CCNCC4)c2CC[C@@H]1C [Example 111, methyl (S)-2-benzyl-7-methyl-3-((S)-7-azaspiro[3.5]nonan-1-yl)-3,7,8,9-tetrahydro-6H-imidazo[4,5-f]quinoline-6-carboxylate]
IC50: 1 to 1000 µM

COC(=O)N1c2ccc3c(nc(CCn4cccn4)n3CCNCc3cnco3)c2CC[C@@H]1C [Example 292]
IC50: 1 to 1000 µM

COC(=O)N1c2ccc3c(nc(C(O)C4CCCC4)n3C3CCCC(C(=O)O)C3)c2CC[C@@H]1C (some centres unmarked) [Example 762]
IC50: 1 to 1000 µM

COC(=O)N1c2ccc3c(nc(CCn4cccn4)n3CC(=O)N(C)C3CCOCC3)c2CC[C@@H]1C [Example 356]
IC50: 1 to 1000 µM

COC(=O)N1c2ccc3c(nc(C(CO)c4ccccc4)n3C3CCC(C(=O)O)CC3)c2CC[C@@H]1C (some centres unmarked) [Example 582]
IC50: 1 to 1000 µM

COC(=O)N1c2ccc3c(nc(Cc4ccc(C#N)cc4)n3[C@H]3CC[C@H](C(=O)O)CC3)c2CC[C@@H]1C [Example 744]
IC50: 1 to 1000 µM

COC(=O)N1c2ccc3c(nc(CCc4ccccc4)n3CCN(C)C)c2CC[C@@H]1C [Example 242, methyl-(7S)-3-[2-(dimethylamino)ethyl]-7-methyl-2-(2-phenylethyl)-3H,6H,7H,8H,9H-imidazo[4,5-f]quinoline-6-carboxylate]
IC50: 1 to 1000 µM

COC(=O)N1c2ccc3c(nc(Cc4ccccc4)n3[C@@H]3CCC34CCNCC4)c2CC[C@@H]1C [Example 112, methyl (S)-2-benzyl-7-methyl-3-((R)-7-azaspiro[3.5]nonan-1-yl)-3,7,8,9-tetrahydro-6H-imidazo[4,5-f]quinoline-6-carboxylate]
IC50: 1 to 1000 µM

COC(=O)N1c2ccc3c(nc(C(C)Cc4ccccc4)n3C3CCNCC3)c2CC[C@@H]1C (some centres unmarked) [Example 947]
IC50: 1 to 1000 µM

COC(=O)N1c2ccc3c(nc(C(C)Cn4ccc(C)n4)n3C3CCCC(C(=O)O)C3)c2CC[C@@H]1C (some centres unmarked) [Example 782]
IC50: 1 to 1000 µM

COC(=O)N1c2ccc3c(nc(C(C)Cn4cccn4)n3C3CCC(C(=O)O)CC3)c2CC[C@@H]1C (some centres unmarked) [Example 917]
IC50: 1 to 1000 µM

COC(=O)N1c2ccc3c(nc(CCc4nnc(C)o4)n3[C@H]3CC[C@H](C(=O)O)CC3)c2CC[C@@H]1C [Example 38]
IC50: 1 to 1000 µM

COC(=O)N1c2ccc3c(nc(CCc4ccc(C)c(F)c4)n3[C@@H]3CCC[C@@H](C(=O)O)C3)c2CC[C@@H]1C [Example 550]
IC50: 1 to 1000 µM

COC(=O)N1c2ccc3c(nc(Cc4ccc(OC)cc4)n3C3CCC4(CC3)CNC4)c2CC[C@@H]1C [Example 108]
IC50: 1 to 1000 µM

COC(=O)N1c2ccc3c(nc(CCn4ccccc4=O)n3CC(=O)N3CC[C@H](C(N)=O)C3)c2CC[C@@H]1C [Example 388]
IC50: 1 to 1000 µM

COC(=O)N1c2ccc3c(nc(CCn4ccccc4=O)n3CC(=O)NCCc3ccccn3)c2CC[C@@H]1C [Example 374]
IC50: 1 to 1000 µM

COC(=O)N1c2ccc3c(nc(COC4CCCCC4)n3[C@@H]3CCC[C@@H](C(=O)O)C3)c2CC[C@@H]1C [Example 702]
IC50: 1 to 1000 µM

COC(=O)N1c2ccc3c(nc(C(C)Cn4cccn4)n3C3CCS(=O)(=O)C3)c2CC[C@@H]1C (some centres unmarked) [Example 955]
IC50: 1 to 1000 µM

COC(=O)N1c2ccc3c(nc(CCn4ccccc4=O)n3CCN3CCN(C)CC3)c2CC[C@@H]1C [Example 230]
IC50: 1 to 1000 µM

COC(=O)N1c2ccc3c(nc(CC(C(=O)O)c4ccc(Cl)cc4)n3C3CCCOC3)c2CC[C@@H]1C (some centres unmarked) [Example 900]
IC50: 1 to 1000 µM

COC(=O)N1c2ccc3c(nc(C(O)CC4CCC(F)(F)CC4)n3C3CCCC(C(=O)O)C3)c2CC[C@@H]1C (some centres unmarked) [Example 596]
IC50: 1 to 1000 µM

COC(=O)N1c2ccc3c(nc(CCc4ccccc4C(=O)O)n3C3CCCCC3)c2CC[C@@H]1C [Example 521]
IC50: 1 to 1000 µM

COC(=O)N1c2ccc3c(nc(OCc4ccccc4)n3[C@H]3CC[C@H](C(=O)O)CC3)c2CC[C@@H]1C [Example 792]
IC50: 1 to 1000 µM

COC(=O)N1c2ccc3c(nc(Cc4ccc(F)c(F)c4)n3[C@@H]3CCC[C@@H](C(=O)O)C3)c2CC[C@@H]1C [Example 502]
IC50: 1 to 1000 µM

COC(=O)N1c2ccc3c(nc(C(C)Cn4cc(C)cn4)n3C3CCC(C(=O)O)CC3)c2CC[C@@H]1C (some centres unmarked) [Example 918]
IC50: 1 to 1000 µM

COC(=O)N1c2ccc3c(nc(Cc4ccccc4)n3[C@H]3CC[C@H](c4nnn[nH]4)CC3)c2CC[C@@H]1C [Example 283]
IC50: 1 to 1000 µM

COC(=O)N1c2ccc3c(nc(CCc4nc(C)co4)n3[C@H]3CC[C@H](C(=O)O)CC3)c2CC[C@@H]1C [Example 36]
IC50: 1 to 1000 µM

COC(=O)N1c2ccc3c(nc(C4(N5CCCCC5=O)CC4)n3[C@@H]3CCC[C@@H](C(=O)O)C3)c2CC[C@@H]1C [Example 588]
IC50: 1 to 1000 µM

COC(=O)N1c2ccc3c(nc(CCn4ccccc4=O)n3CCNCc3ccncn3)c2CC[C@@H]1C [Example 314]
IC50: 1 to 1000 µM

COC(=O)N1c2ccc3c(nc(CCn4ccccc4=O)n3CC(=O)NCc3cc(C)no3)c2CC[C@@H]1C [Example 391]
IC50: 1 to 1000 µM

COC(=O)N1c2ccc3c(nc(C(C)Cn4cccn4)n3C3CCCS(=O)(=O)C3)c2CC[C@@H]1C (some centres unmarked) [Example 860]
IC50: 1 to 1000 µM

COC(=O)N1c2ccc3c(nc([C@H](C)c4ccccc4)n3[C@H]3CC[C@H](C(=O)O)CC3)c2CC[C@@H]1C [Example 56, trans-4-[(7S)-6-(methoxycarbonyl)-7-methyl-2-[(1R)-1-phenylethyl]-3H,6H,7H,8H,9H-imidazo[4,5-f]quinolin-3-yl]cyclohexane-1-carboxylic Acid]
IC50: 1 to 1000 µM

COC(=O)N1c2ccc3c(nc(C4(n5cc(Cl)cn5)CC4)n3[C@H]3CC[C@H](C(=O)O)CC3)c2CC[C@@H]1C [Example 617]
IC50: 1 to 1000 µM

COC(=O)N1c2ccc3c(nc(CC(C(=O)O)c4ccc(C(F)F)cc4)n3C3CCCOC3)c2CC[C@@H]1C (some centres unmarked) [Example 524]
IC50: 1 to 1000 µM

COC(=O)N1c2ccc3c(nc(Cc4ccc(OC(F)F)nc4)n3[C@@H]3CCC[C@@H](C(=O)O)C3)c2CC[C@@H]1C [Example 619]
IC50: 1 to 1000 µM

COC(=O)N1c2ccc3c(nc(CCn4cccn4)n3CC(=O)N[C@H](C)CO)c2CC[C@@H]1C [Example 349]
IC50: 1 to 1000 µM
